# Source: US9512132B2, “Pyrazole compounds as CB2 agonists” (Hoffmann-La Roche Inc., priority 2013, dated 2016)
# Read-outs that look alike come from different tables or passages of the source.
# Assays:
# human CB2 receptor = human CB2 receptor (Homo sapiens (Human), UniProt P34972); test: cAMP assay, CHO cells expressing human CB2 receptors; assay type: cell-based
# Procedure: (§1) CHO cells expressing human CB1 or CB2 receptors are seeded 17-24 hours prior to the experiment 50.000 cells per well in a black 96 well plate with flat clear bottom (Corning Costar #3904) in DMEM (Invitrogen No. 31331), lx HT supplement, with 10% fetal calf serum and incubated at 5% CO2 and 37° C. in a humidified incubator. The growth medium was exchanged with Krebs Ringer Bicarbonate buffer with 1 mM IBMX and incubated at 30° C. for 30 min. Compounds were added to a final assay volume of 100 μl and incubated for 30 min at 30° C. Using the cAMP-Nano-TRF detection kit the assay (Roche Diagnostics) was stopped by the addition of 50 μl lysis reagent (Tris, NaCl, 1.5% Triton X100, 2.5% NP40, 10% NaN3) and 50 μl detection solutions (20 μM mAb Alexa700-cAMP 1:1, and 48 μM Ruthenium-2-AHA-cAMP) and shaken for 2 h at room temperature. The time-resolved energy transfer is measured by a TRF reader (Evotec Technologies GmbH), equipped with a ND:YAG laser as excitation source. The plate is measured twice with the excitation at 355 nm and at the emission with a delay of 100 ns and a gate of 100 ns, total exposure time 10 s at 730 (bandwidth 30 nm) or 645 nm (bandwidth 75 nm), respectively. The FRET signal is calculated as follows: FRET=T730-Alexa730-P(T645-B645) with P=Ru730-B730/Ru645-B645, where T730 is the test well measured at 730 nM, T645 is the test well measured at 645 nm, B730 and B645 are the buffer controls at 730 nm and 645 nm, respectively. cAMP content is determined from the function of a standard curve spanning from 10 μM to 0.13 nM cAMP.
# (§2) EC50 values were determined using Activity Base analysis (ID Business Solution, Limited). The EC50 values for a wide range of cannabinoid agonists generated from this assay were in agreement with the values published in the scientific literature.
# human CB1 receptor = human CB1 receptor (Homo sapiens (Human), UniProt P21554); test: cAMP assay, CHO cells expressing human CB1 receptors; assay type: cell-based
# Chain of human CB1 receptor (P21554 whole entry): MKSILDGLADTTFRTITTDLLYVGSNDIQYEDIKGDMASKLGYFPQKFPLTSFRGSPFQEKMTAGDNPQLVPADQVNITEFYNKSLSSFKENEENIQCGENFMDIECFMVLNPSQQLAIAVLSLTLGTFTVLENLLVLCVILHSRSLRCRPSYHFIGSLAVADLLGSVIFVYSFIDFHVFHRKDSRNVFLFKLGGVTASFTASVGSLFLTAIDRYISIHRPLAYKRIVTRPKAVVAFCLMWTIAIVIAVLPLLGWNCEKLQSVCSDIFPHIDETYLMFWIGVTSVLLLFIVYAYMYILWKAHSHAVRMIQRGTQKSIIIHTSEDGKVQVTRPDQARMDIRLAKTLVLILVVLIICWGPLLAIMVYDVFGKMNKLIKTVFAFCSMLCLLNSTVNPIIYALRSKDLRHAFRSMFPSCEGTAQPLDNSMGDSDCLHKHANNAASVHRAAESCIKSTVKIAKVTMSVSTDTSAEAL
# Procedure: as §1, §2
# [1] = functional cAMP assay, CHO cells expressing human CB2, read-out: human CB2 EC50
# [2] = functional cAMP assay, CHO cells expressing human CB1, read-out: human CB1 EC50
# Chain of human CB2 receptor (P34972 whole entry): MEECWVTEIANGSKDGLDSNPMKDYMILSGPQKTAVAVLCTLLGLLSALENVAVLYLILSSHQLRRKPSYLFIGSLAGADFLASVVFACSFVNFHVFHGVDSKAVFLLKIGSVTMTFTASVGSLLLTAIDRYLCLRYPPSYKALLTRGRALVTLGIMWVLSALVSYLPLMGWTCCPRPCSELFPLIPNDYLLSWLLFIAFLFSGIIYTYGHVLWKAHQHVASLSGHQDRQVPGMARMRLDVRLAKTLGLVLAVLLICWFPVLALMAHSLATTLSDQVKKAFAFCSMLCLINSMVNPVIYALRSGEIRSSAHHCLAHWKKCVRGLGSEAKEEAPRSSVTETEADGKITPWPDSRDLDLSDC
SMILES,EC50 (human CB2 receptor; [1]) [nM],EC50 (human CB1 receptor; [2]) [nM],EC50 (human CB2 receptor) [nM],EC50 (human CB1 receptor) [nM]
"CC(C)(C)c1nc(N2CCC(F)(F)C2)c2cnn(Cc3ccccc3)c2n1 [Example 2, 1-Benzyl-6-tert-butyl-4-(3,3-difluoro-pyrrolidin-1-yl)-1H-pyrazolo[3,4-d]pyrimidine]",3.3,> 10000,,
"Cc1nonc1Cn1ncc2c(N3CC[C@H](O)C3)nc(C(C)(C)C)nc21 [Example 25, (S)-1-[6-tert-Butyl-1-(4-methyl-furazan-3-ylmethyl)-1H-pyrazolo[3,4-d]pyrimidin-4-yl]-pyrrolidin-3-ol]",0.4,> 10000,,
"Cc1nnc(Cn2ncc3c(N4CC=C(F)C4)nc(C(C)(C)C)nc32)n1C [Example 18, 6-tert-Butyl-1-(4,5-dimethyl-4H-[1,2,4]triazol-3-ylmethyl)-4-(3-fluoro-2,5-dihydro-pyrrol-1-yl)-1H-pyrazolo[3,4-d]pyrimidine]",26.2,> 10000,,
"Cc1nonc1Cn1ncc2c(N3CCC(F)(F)C3)cc(C3CC3)nc21 [Example 28, 6-Cyclopropyl-4-(3,3-difluoro-pyrrolidin-1-yl)-1-(4-methyl-furazan-3-ylmethyl)-1H-pyrazolo[3,4-b]pyridine]",1.9,> 10000,,
"COc1ccc(Cn2ncc3c(N4CCC(F)(F)C4)cc(C4CC4)nc32)cc1 [Example 24, 6-Cyclopropyl-4-(3,3-difluoro-pyrrolidin-1-yl)-1-[(4-methoxyphenyl)methyl]-1H-pyrazolo[3,4-b]pyridine]",17.5,> 10000,,
"CC(C)(C)c1nc(N2CCC(F)(F)C2)c2cnn(CCc3ccccc3)c2n1 [Example 8, 6-tert-Butyl-4-(3,3-difluoro-pyrrolidin-1-yl)-1-phenethyl-1H-pyrazolo[3,4-d]pyrimidine]",5.4,> 10000,,
"CC(C)(C)c1nc(N2CCC(F)(F)C2)c2cnn(C3CCOC3)c2n1 (stereo not drawn) [Example 14, 6-tert-Butyl-4-(3,3-difluoro-pyrrolidin-1-yl)-1-(tetrahydro-furan-3-yl)-1H-pyrazolo[3,4-d]pyrimidine]",1.3,> 10000,,
"Cc1nonc1CO[C@H]1CCN(c2nc(C(C)(C)C)nc3c2cnn3Cc2nonc2C)C1 [Example 26, 6-tert-Butyl-4-[(S)-3-(4-methyl-furazan-3-ylmethoxy)-pyrrolidin-1-yl]-1-(4-methyl-furazan-3-ylmethyl)-1H-pyrazolo[3,4-d]pyrimidine]",35.6,> 10000,,
"CC(C)(C)COc1nc(N2CCC(F)(F)C2)c2cnn(Cc3ccccc3C(F)(F)F)c2n1 [Example 38, 4-(3,3-Difluoropyrrolidin-1-yl)-6-(2,2-dimethylpropoxy)-1-[[2-(trifluoromethyl)phenyl]methyl]pyrazolo[3,4-d]pyrimidine]",16,> 10000,,
"CC(C)(C)c1nc(N2CCC[C@@H]2CO)c2cnn(Cc3ccccc3C(F)(F)F)c2n1 [Example 34, {(R)-1-[6-tert-Butyl-1-[(2-trifluoromethylphenyl)methyl]-1H-pyrazolo[3,4-d]pyrimidin-4-yl]pyrrolidin-2-yl}-methanol]",5,> 10000,,
"Cn1nncc1Cn1ncc2c(N3CCC(F)(F)C3)nc(C(C)(C)C)nc21 [Example 19, 6-tert-Butyl-4-(3,3-difluoro-pyrrolidin-1-yl)-1-(3-methyl-3H-[1,2,3]triazol-4-ylmethyl)-1H-pyrazolo[3,4-d]pyrimidine]",,,1.4,> 10000
"CC(C)(C)c1nc(N2CCC(F)(F)C2)c2cnn(Cc3ccccc3C(F)(F)F)c2n1 [Example 7, 6-tert-Butyl-4-(3,3-difluoro-pyrrolidin-1-yl)-1-[(2-trifluoromethylphenyl)methyl]-1H-pyrazolo[3,4-d]pyrimidine]",1.1,> 10000,,
"CC(C)(C)c1nc(N2CCC(F)(F)C2)c2cnn(Cc3cccnc3Cl)c2n1 [Example 12, 6-tert-Butyl-1-(2-chloro-pyridin-3-ylmethyl)-4-(3,3-difluoro-pyrrolidin-1-yl)-1H-pyrazolo[3,4-d]pyrimidine]",1.6,1570,,
"FC1(F)CCN(c2nc(Cl)nc3c2cnn3Cc2ccccc2C(F)(F)F)C1 [Example 37, 6-Chloro-4-(3,3-difluoropyrrolidin-1-yl)-1-[[2-(trifluoromethyl)phenyl]methyl]pyrazolo[3,4-d]pyrimidine]",17.2,> 10000,,
"CC(C)(C)c1nc(N2CC[C@H](O)C2)c2cnn(Cc3ccccc3Cl)c2n1 [Example 3, (S)-1-[6-tert-Butyl-1-[(2-chlorophenyl)methyl]-1H-pyrazolo[3,4-d]pyrimidin-4-yl]-pyrrolidin-3-ol]",5.1,> 10000,,
"COc1ccc(Cn2ncc3c(N4CCC(F)(F)C4)nc(C(C)(C)C)nc32)cc1 [Example 1, 6-tert-Butyl-4-(3,3-difluoro-pyrrolidin-1-yl)-[(4-methoxyphenyl)methyl]-1H-pyrazolo[3,4-d]pyrimidine]",4.8,> 10000,,
"CC(C)(C)c1nc(N2CCC(F)(F)C2)c2cnn(CC(=O)c3ccccn3)c2n1 [Example 22, 2-[6-tert-Butyl-4-(3,3-difluoro-pyrrolidin-1-yl)-pyrazolo[3,4-d]pyrimidin-1-yl]-1-pyridin-2-yl-ethanone]",8.4,> 10000,,
"CC(C)(C)c1nc(N2CC[C@H](O)C2)c2cnn(Cc3ncccc3Cl)c2n1 [Example 32, (S)-1-[6-tert-Butyl-1-(3-chloro-pyridin-2-ylmethyl)-1H-pyrazolo[3,4-d]pyrimidin-4-yl]-pyrrolidin-3-ol]",1.5,> 10000,,
"Cn1nnnc1Cn1ncc2c(N3CC[C@H](O)C3)nc(C(C)(C)C)nc21 [Example 31, (S)-1-[6-tert-Butyl-1-(1-methyl-1H-tetrazol-5-ylmethyl)-1H-pyrazolo[3,4-d]pyrimidin-4-yl]-pyrrolidin-3-ol]",17.3,> 10000,,
"CCOc1nc(C(C)(C)C)nc2c1cnn2Cc1ccccc1Cl [Example 5, 6-tert-Butyl-1-[(2-chlorophenyl)methyl]-4-ethoxy-1H-pyrazolo[3,4-d]pyrimidine]",25.5,> 10000,,
"Cc1nnc(Cn2ncc3c(N4CCC(F)(F)C4)nc(C(C)(C)C)nc32)n1C [Example 17, 6-tert-Butyl-4-(3,3-difluoro-pyrrolidin-1-yl)-1-(4,5-dimethyl-4H-[1,2,4]triazol-3-ylmethyl)-1H-pyrazolo[3,4-d]pyrimidine]",3,> 10000,,
"Cc1nonc1Cn1ncc2c(N3CCC(F)(F)C3)nc(C(C)(C)C)nc21 [Example 9, 6-tert-Butyl-4-(3,3-difluoro-pyrrolidin-1-yl)-1-(4-methyl-furazan-3-ylmethyl)-1H-pyrazolo[3,4-d]pyrimidine]",0.5,> 10000,,
"CC(C)(C)c1nc(N2CCC(F)(F)C2)c2cnn(Cc3nnnn3C3CC3)c2n1 [Example 16, 6-tert-Butyl-1-(1-cyclopropyl-1H-tetrazol-5-ylmethyl)-4-(3,3-difluoro-pyrrolidin-1-yl)-1H-pyrazolo[3,4-d]pyrimidine]",0.6,> 10000,,
"CC(C)(C)c1nc(N2CCC(F)(F)C2)c2cnn(Cc3ccccc3Cl)c2n1 [Example 4, 6-tert-Butyl-1-[(2-chlorophenyl)methyl]-4-(3,3-difluoro-pyrrolidin-1-yl)-1H-pyrazolo[3,4-d]pyrimidine]",4.2,> 10000,,
